# Assay results published in patent US20120190703A1, “SALTS OF 13A-(S)DESOXYTYLOPHORININE, PREPARATION METHODS AND PHARMACEUTICAL COMPOSITIONS AND USES THEREOF” (priority 2009, published 2012).
# Values joined by “and” are separate entries in the source; they are usually repeats but may differ in a detail not shown here. Identical values can stand only once. Like-named read-outs stand apart in the source and are kept apart here. Marks after values point to notes of the source that are not given here.
# Legend:
# [1] = Solubility in water; assay type: physicochemical
# [2] = system: H22 tumor-bearing mice; conditions: intragastric once daily
# From the text: To determine the pharmacodynamic characters of 13a-(S)-deoxytylophorinine and its salts, the impact of these compounds to the tumor growth in H22 tumor-bearing mice was surveyed.
# Male Kunming mice were obtained from the Laboratory Animal Center, Academy of Military Medical Science. Body weight 18˜22 g. 6 animals per group, totally 10 groups, 60 animals.
# (+)-13a-(S)-deoxytylophorinine, (+)-13a-(S)-deoxytylophorinine Tartrate, (+)-13a-(S)-deoxytylophorinine Maleate, (+)-13a-(S)-deoxytylophorinine Citrate, Cytoxane (CTX) as positive control.
# (+)-13a-(S)-deoxytylophorinine was administered at high dose (5 mg/kg) and low dose (2.5 mg/kg). Three (+)-13a-(S)-deoxytylophorinine salts were administered at high dose and low dose as equal moles with their prototype (Tartrate: 7.05 mg/kg, 3.53 mg/kg; Malate: 6.60 mg/kg, 3.30 mg/kg; Citrate: 7.90 mg/kg, 3.95 mg/kg).
# Animals were reared in SPF grade circumstance to be observed for 24 h. The tumor cells liquid which resuscitated in abdominal cavity of KM mice was diluted with aseptic normal saline at 1:3 ratio. The resulting liquid was inoculated subcutaneously at forelimb with 0.2 mL every animal. After the injection over, the animals were divided to […] with 6 animals per group.
# Four experimental samples were intragastric administered once daily 24 h after inoculation. The positive control CTX was intraperitoneal injected once daily. The animal body weight was recorded every day.
# [3] = Plasma pharmacokinetics after oral administration in mice; conditions: for t½z / AUC(0-inf) / AUC(0-t) / Cmax / MRT inf / MRT last / Tmax: plasma; for t½z: non-compartment model; for AUC(0-inf) / AUC(0-t) / Cmax / MRT inf / MRT last / Tmax: male, ICR, mouse, po, 6 mg/kg
# Experimental: To determine the pharmacokinetic characters of 13a-(S)-deoxytylophorinine and its salts, the studies about plasma pharmacokinetics and the character of distribution in brain were pursued.
# (§1) Male ICR mice. Body weight 18˜22 g.
# (+)-13a-(S)-deoxytylophorinine Tartrate, (+)-13a-(S)-deoxytylophorinine Maleate, (+)-13a-(S)-deoxytylophorinine Citrate. All were dissolved in distilled water as 0.6 mg/ml solution before experiment progressed.
# 72 mice were divided to 3 groups with 24 animals per group, fasting for 16 h and drinking water freely. […] Plasma was isolated by centrifugalization. After the salts were administered orally, the brain tissues of mice were collected at 5 min, 15 min, 2 h time points. 25% tissue homogenate was prepared with normal saline addition. 200 μL of homogenate and plasma were added isovolumic MeCN to precipitate protein. 5 μL of clear supernatant was analyzed by LC/MS/MS.
# (+)-13a-(S)-deoxytylophorinine was dissolved in DMSO and then diluted with MeOH with concentration 10, 50, 100, 500, 1000 and 2500 ng/ml respectively. 10 μl of standard solutions of (+)-13a-(S)-deoxytylophorinine with different concentration above were added to 200 μl of blank plasma sequently to adjust the concentration to 0.5, 2.5, 5, 25, 50, 125 ng/ml respectively. MeCN was added to the solution to precipitate protein, and 5 μl of result clear supernatant was analyzed with LC/MS/MS. Linear regression was ran with the peak area of (+)-13a-(S)-deoxytylophorinine as ordinate and the concentrations as abscissa.
# [4] = Drug distribution in brain tissue after oral administration in mice; assay type: in vivo, ICR mice; conditions: for Brain contents of (+)-13a-(S)-deoxytylophorinine (ng/ml), Mean ± SD / Brain contents of (+)-13a-(S)-deoxytylophorinine (ng/ml), individual animals 1-3: 6 mg/kg oral
# Experimental: as §1
# Plasma was isolated by centrifugalization. […] 25% tissue homogenate was prepared with normal saline addition.
# The drug concentration-time data in brain tissue after administered orally of (+)-13a-(S)-deoxytylophorinine tartrate, maleate and citrate were represented in Table 8˜10 and FIG. 6˜8. […] (+)-13a-(S)-deoxytylophorinine could be detected in 5 min. The peak concentration was reached after 15 min, and the compound still can be detected after 2 h after administration.
# [5] = preliminary toxic experiments, background art; cited from earlier work
# [6] = system: mice H22 liver cancer; conditions: background art; cited from earlier work
# [7] = system: mice Lewis lung cancer; conditions: background art; cited from earlier work
# [8] = high dose × 7 d, equal moles: prototype 5.0, tartrate 7.05, maleate 6.60, citrate 7.90 mg/kg
# [9] = low dose × 7 d, equal moles: prototype 2.5, tartrate 3.53, maleate 3.30, citrate 3.95 mg/kg
# [10] = 6 mg/kg oral, mice, Time (min) 0.5
# [11] = 6 mg/kg oral, mice, Time (min) 1
SMILES,"Animal No. (Initial/Final) [2, 8]","Body Weight(g) Final [2, 8] [g]","Body Weight(g) Initial [2, 8] [g⁻¹]","Inhibition (%) [2, 8]","Tumor Weight (g, mean ± SD) [2, 8] [g]","Animal No. (Initial/Final) [2, 9]","Body Weight(g) Final [2, 9] [g]","Body Weight(g) Initial [2, 9] [g⁻¹]","Inhibition (%) [2, 9]","Tumor Weight (g, mean ± SD) [2, 9] [g]","t½z ([3]; 6 mg/kg oral, mice) [min]",AUC(0-inf) [3] [ng·h/mL],AUC(0-t) [3] [ng·h/mL],Cmax [3] [ng/mL],MRT inf [3] [min],MRT last [3] [min],Tmax [3] [min],also measured
"COc1ccc2c3c(c4cc(OC)c(OC)cc4c2c1)CN1CCC[C@H]1C3.O=C(O)CC(O)(CC(=O)O)C(=O)O [Citrate, (+)-13a-(S)-deoxytylophorinine Citrate]",6/5,14.27 ± 2.61,22.00 ± 1.55,80.44** %,0.22 ± 0.13,6/6,21.01 ± 2.04,21.83 ± 0.75,46.87* %,0.61 ± 0.35,51.6,33.1,32.7,20.1,137,104,15,"Solubility in water (words) [1]: soluble in water; solubility ([1]; water): 33 mg/mL; Peak concentration in blood ([3]; 6 mg/kg oral, mice): 20.1 ± 12.2 ng/mL; Time of peak concentration in blood ([3]; 6 mg/kg oral, mice): 15 min; Blood concentration of (+)-13a-(S)-deoxytylophorinine (ng/ml), Mean ± SD [3, 10]: 12.6 ± 6.5 ng/mL; Blood concentration of (+)-13a-(S)-deoxytylophorinine (ng/ml), individual animals 1-3 [3, 10]: 20.1 ng/mL and 8.4 ng/mL and 9.3 ng/mL; Blood concentration of (+)-13a-(S)-deoxytylophorinine (ng/ml), Mean ± SD [3, 11]: 8.4 ± 2.9 ng/mL; Blood concentration of (+)-13a-(S)-deoxytylophorinine (ng/ml), individual animals 1-3 [3, 11]: 11.2 ng/mL and 5.4 ng/mL and 8.5 ng/mL; Brain contents of (+)-13a-(S)-deoxytylophorinine (ng/ml), Mean ± SD ([4]; Time (min) 5): 23.6 ± 12.7 ng/mL; Brain contents of (+)-13a-(S)-deoxytylophorinine (ng/ml), individual animals 1-3 ([4]; Time (min) 5): 22.0 ng/mL and 37.1 ng/mL and 11.8 ng/mL; Brain contents of (+)-13a-(S)-deoxytylophorinine (ng/ml), Mean ± SD ([4]; Time (min) 15): 87.3 ± 50.1 ng/mL; Brain contents of (+)-13a-(S)-deoxytylophorinine (ng/ml), individual animals 1-3 ([4]; Time (min) 15): 84.8 ng/mL and 138.7 ng/mL and 38.5 ng/mL; Brain contents of (+)-13a-(S)-deoxytylophorinine (ng/ml), Mean ± SD ([4]; Time (min) 120): 48.7 ± 14.1 ng/mL; Brain contents of (+)-13a-(S)-deoxytylophorinine (ng/ml), individual animals 1-3 ([4]; Time (min) 120): 37.0 ng/mL and 44.8 ng/mL and 64.4 ng/mL; Drug contents in brain compared with prototype ([4]; oral, 3 time points): lower than its prototype"
"COc1ccc2c3c(c4cc(OC)c(OC)cc4c2c1)CN1CCC[C@H]1C3 [(+)-13a-(S)-deoxytylophorinine, reference compound]",6/4,15.63 ± 2.16,23.50 ± 2.51,74.02** %,0.30 ± 0.12,6/6,23.31 ± 2.14,23.00 ± 1.55,42.79* %,0.66 ± 0.21,26.4,33.7,33.3,41.5,48,46.2,15,"Solubility in water [1]: Insoluble; Solubility in water (words) ([1]; statement in text, listed as 13a-(S)-Deoxytylophorinine): insoluble in water; Solubility in water (words) ([1]; statement in text, listed as (+)-13a-(S)-Deoxytylophorinine): can not be dissolved in water; Toxicity in the liver and kidney [5]: not toxic in the liver and kidney; Anti-tumor proliferative activity, mice H22 liver cancer [6]: notable anti-tumor proliferative activity; Anti-tumor proliferative activity, mice Lewis lung cancer [7]: notable anti-tumor proliferative activity"
